Data published in patent US10167300B2, “Metalloenzyme inhibitor compounds as fungicides” (priority 2014, dated 2019).
Read-outs that look alike come from different tables or passages of the source.

Experiments:
[1] = tested on: Mycosphaerella graminicola; Anamorph: Septoria tritici; Bayer Code SEPTTR (standard laboratory isolate, SI SEPTTR); test: Type A (high volume) assay, leaf blotch of wheat, standard laboratory SEPTTR isolate (SI SEPTTR); format: in vivo, Mycosphaerella graminicola on wheat plants (variety Yuma); details: Zymoseptoria tritici, standard laboratory isolate, high volume, 50 ppm, wheat (Yuma)
How it was run: (§1)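 Wheat seedlings (Yuma, first leaf emerged) sprayed with acetone/Triton X-100 solutions (Type A) or 10% EC diluted in 0.1% Trycol at 200 L/ha (Type B), inoculated before or after spraying. Inoculated plants held 3 days at 20 °C, 100% RH, then greenhouse; % disease control from severity versus untreated plants.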

[2] = tested on: Mycosphaerella graminicola; Anamorph: Septoria tritici; Bayer Code SEPTTR (field isolate collected from Wellsbourne, England in 2012, FI SEPTTR); test: Type B (low volume, EC formulation, track sprayer 200 L/ha) assay, leaf blotch of wheat, SEPTTR field isolate (FI SEPTTR); format: in vivo, Mycosphaerella graminicola on wheat plants (variety Yuma); details: field isolate, low volume EC, 100 g/ha, wheat (Yuma); for Disease Control, FI SEPTTR Type B Assay (100 g/ha) 3 DC: 3 Day Curative; for Disease Control, FI SEPTTR Type B Assay (100 g/ha) 3 DP: 3 Day Protectant
How it was run: as §1

melting point [°C] | SMILES | pest or weed control at 50 ppm ([1]; 24 h, 1 Day Protectant, read-out: Disease Control, SI SEPTTR Type A Assay (50 ppm) 1 DP) [%] | pest or weed control at 50 ppm ([1]; 72 h, 3 Day Curative, read-out: Disease Control, SI SEPTTR Type A Assay (50 ppm) 3 DC) [%] | Disease Control, FI SEPTTR Type B Assay (100 g/ha) 3 DC [2] | Disease Control, FI SEPTTR Type B Assay (100 g/ha) 3 DP [2]
150 to 155 | CC(O)(Cc1cncnc1)c1ccc(-c2ccc(Cl)cc2)cn1 (stereo not shown) [Compound 25, 2-[5-(4-chlorophenyl)-2-pyridyl]-1-pyrimidin-5-yl-propan-2-ol] | 40 to 59 | 80 to 100 | – | –
– | CCOC(CC)(c1cncnc1)c1ccc(-c2ccc(OC(F)(F)F)cc2F)cn1 (stereo not shown) [Compound 193] | – | – | D (<40) | B (60-79)
– | CC(C)(C)C(O)(Cc1cncnc1)c1ccc(-c2ccc(SC(F)(F)F)cc2)cn1 (stereo not shown) [Compound 231] | – | – | D (<40) | B (60-79)
